Common to all, as to assay: Test A post-emergence
Holding throughout (parameters): key: 0 = no effect, 10 = maximum effect; letter = response symbol
Conditions in all cases: 0.4 kg/ha

In one experiment the test system is bush bean. It is filed as in vivo, bush beans.
The next experiment deals with cocklebur. It is filed as in vivo, Xanthium spp. Summed up:
(§1)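 Seeds and tubers were treated preemergence in a growth medium with compound in a nonphytotoxic solvent, against untreated controls; emerged plants such as two-leaf barnyardgrass and five-leaf cotton were sprayed postemergence, against solvent-sprayed controls. After sixteen days in a greenhouse, response was rated visually from 0 to 10.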

Another experiment deals with wild oats. It is filed as in vivo, Avena fatua. The procedure, abridged: as §1
The test system of a further experiment is barnyardgrass. It is filed as in vivo, Echinochloa crusgalli. Summed up:
as §1

The next experiment has as its system cassia. It is filed as in vivo, Cassia tora. The procedure, abridged: as §1
The subject of another experiment is nutsedge. It is filed as in vivo, Cyperus rotundus. The procedure, abridged: as §1
The subject of a further experiment is morningglory. It is filed as in vivo, Ipomoea spp. The procedure, abridged: as §1
The next experiment concerns wheat. It is filed as in vivo. Summed up:
as §1

The test system of a further experiment is sorghum. It is filed as in vivo. Summed up:
as §1

A further experiment concerns cotton. It is filed as in vivo. The procedure, abridged:
as §1

A further experiment relates to soybean. It is filed as in vivo. The procedure, abridged:
as §1

The test system of another experiment is corn. It is filed as in vivo. Summed up: as §1
The test system of the next experiment is crabgrass. It is filed as in vivo, Digitaria spp. The procedure, abridged: as §1
The next experiment relates to rice. It is filed as in vivo. Summed up: as §1

`COC(=O)c1ccccc1S(=O)(=O)NC(=O)Nc1nc(C)cc(OC)n1` [drawing 413]: the response rating in the experiment on bush bean, in the experiment on cocklebur, in the experiment with wild oats, in the experiment on barnyardgrass, with cassia and in the experiment on nutsedge was 9C each time. Moreover, the response rating was determined as 10C with morningglory; 9C with wheat; 9C with sorghum; 9C in the experiment with cotton; 9C in the experiment with soybean; 10C in the experiment with corn.
On to `COCCc1nc(NC(=O)NS(=O)(=O)c2ccccc2C(=O)OC)nc(OC)n1` [drawing 474], for which the response rating in the experiment with bush bean turned out to be 9C; in the experiment on crabgrass, 9C; in the experiment on morningglory, 10C; in the experiment with wheat it was 1C; in the experiment with cotton it was 9C; in the experiment on soybean, 9C. The compound further displayed a response rating with corn of 9C.
For `C=CCCC(C)OC(=O)c1ccccc1S(=O)(=O)NC(=O)Nc1nc(C)nc(OC)n1` (centres unmarked) [drawing 455], the response rating stood at 9C with bush bean; 10C in the experiment with cocklebur; 9C with crabgrass; 9C in the experiment on cassia; 7G in the experiment on nutsedge; 10C in the experiment with morningglory. In addition, the response rating in the experiment on cotton, with soybean and in the experiment with corn was 9C each time.
Turning to `CCOCCOC(=O)c1ccccc1S(=O)(=O)NC(=O)Nc1nc(Cl)cc(Cl)n1` [drawing 453], the response rating in the experiment with cocklebur is 5C; with wild oats, 1C; in the experiment on crabgrass it was 2C; in the experiment on cassia, 0; with nutsedge it was 0; in the experiment with morningglory, 0. For the same compound, the figures for the response rating with wheat and in the experiment with cotton were 2G and 1C, respectively.
Regarding `CNC(=O)c1ccccc1S(=O)(=O)NC(=O)Nc1nc(C)cc(OC)n1` [drawing 466], the response rating with bush bean, in the experiment with cocklebur, with wild oats, with crabgrass, in the experiment with barnyardgrass and in the experiment with cassia was 9C in each case. In addition, the response rating in the experiment on nutsedge was 10C; in the experiment on morningglory it was 10C; in the experiment with wheat, 9C; with sorghum, 10C; in the experiment with cotton, 10C; in the experiment on soybean it was 9C. The compound further registered a response rating in the experiment on corn of 10C.
Take `COc1cc(C)nc(NC(=O)NS(=O)(=O)c2ccccc2C(=O)OCCOc2ccccc2)n1` [drawing 461]: the response rating in the experiment with bush bean turned out to be 9C; in the experiment with cocklebur it was 10C; in the experiment with crabgrass it was 4G; in the experiment on barnyardgrass it was 9C; in the experiment with nutsedge, 8G; in the experiment with morningglory, 9C. Besides, the response rating worked out at 8G with sorghum, 9C with cotton and 9C in the experiment on soybean.
Regarding `COC(=O)c1cc(F)ccc1S(=O)(=O)NC(=O)Nc1nc(C)nc(OC)n1` [drawing 450], the response rating with bush bean is given as 9C; with wild oats, 0; with crabgrass it was 9C; in the experiment with cassia, 9C; in the experiment with morningglory it was 9C; with wheat, 0. The response rating in the experiment on corn and in the experiment on rice was 9C in each case.
`COc1cc(C)nc(NC(=O)NS(=O)(=O)c2ccccc2C(=O)NCc2ccccc2)n1` [drawing 464]: the response rating with bush bean is given as 9C; with cocklebur, 9C; in the experiment on wild oats, 9C; with barnyardgrass, 9C; in the experiment with morningglory, 10C; in the experiment with wheat, 9C. The response rating with sorghum is reported as 9C; in the experiment on cotton it was 9C; with soybean, 9C; in the experiment on corn, 10C.
Regarding `COC(=O)c1ccccc1S(=O)(=O)NC(=O)Nc1nc(OC)nc(OCC(F)(F)F)n1` [drawing 473], the response rating was 9C in the experiment with bush bean; 10C in the experiment on cocklebur; 3G in the experiment with crabgrass; 10C in the experiment on cassia; 10C with morningglory; 9C in the experiment on cotton. In addition, the response rating in the experiment on corn was 10C.
Turning to `COc1cc(C)nc(NC(=O)NS(=O)(=O)c2ccccc2C(=O)SC)n1` [drawing 477], the response rating in the experiment on bush bean, with cocklebur, in the experiment on barnyardgrass, in the experiment on cassia, in the experiment on morningglory and with sorghum was 9C in each case. Moreover, the response rating in the experiment with cotton, in the experiment on soybean and in the experiment with corn was 9C throughout.
As to `COc1cc(OC)nc(NC(=O)NS(=O)(=O)c2ccccc2C(=O)OCCCl)n1` [drawing 420], the response rating is recorded as 9C in the experiment on bush bean; 10C in the experiment on cocklebur; 10C with barnyardgrass; 9C in the experiment with cassia; 9C in the experiment on nutsedge; 10C in the experiment on morningglory. Further, the response rating in the experiment on sorghum is reported as 10C; with cotton it was 9C; in the experiment on soybean it was 10C.
In the case of `COc1nc(C)nc(NC(=O)NS(=O)(=O)c2ccccc2C(=O)OCCCl)n1` [drawing 426], the response rating with bush bean is 9C; with cocklebur, 10C; in the experiment with wild oats, 4G; in the experiment on cassia, 9C; in the experiment with nutsedge it was 9C; in the experiment on morningglory it was 10C. For the same compound, the response rating worked out at 1C in the experiment on wheat, 9C with cotton and 9C in the experiment on corn.
Take `CCCCCCOC(=O)c1ccccc1S(=O)(=O)NC(=O)Nc1nc(C)cc(COC)n1` [drawing 471]: the response rating was 0 in the experiment on wild oats; 0 in the experiment with crabgrass; 3C with barnyardgrass; 1C in the experiment with cassia; 2C in the experiment on morningglory; 0 in the experiment with wheat. In addition, the response rating in the experiment on cotton and in the experiment on soybean was 2C each time.
Take `COC(=O)c1cc(Cl)ccc1S(=O)(=O)NC(=O)Nc1nc(C)cc(OC)n1` [drawing 434]: the response rating with cocklebur is 10C; with crabgrass, 3G; with cassia, 9C; in the experiment with morningglory, 10C; with corn it was 9H; in the experiment with rice, 9C.
As to `COc1cc(C)nc(NC(=O)NS(=O)(=O)c2ccccc2C(=O)OC(C)CCl)n1` (centres unmarked) [drawing 478], the response rating in the experiment with cocklebur was determined as 9C; with wild oats, 8C; with crabgrass it was 9C; in the experiment on barnyardgrass, 10C; in the experiment with cassia it was 10C; in the experiment on nutsedge it was 9C. The response rating in the experiment on morningglory was found to be 10C; in the experiment with wheat, 8C; in the experiment with sorghum it was 9C; in the experiment with cotton it was 9C; in the experiment on corn, 9C.
As to `COc1cc(C)nc(NC(=O)NS(=O)(=O)c2ccccc2C(=O)OCCCl)n1` [drawing 421], the response rating amounted to 9C in the experiment with bush bean; 10C in the experiment with cocklebur; 10C in the experiment on barnyardgrass; 10C with cassia; 10C in the experiment on nutsedge; 10C in the experiment on morningglory. For the same compound, the response rating turned out to be 9C in the experiment with sorghum, 9C with cotton and 10C in the experiment on corn.
`COc1cc(C)nc(NC(=O)NS(=O)(=O)c2ccccc2C(=O)SCc2ccccc2)n1` [drawing 475]: the response rating in the experiment with bush bean worked out at 9C; in the experiment on cocklebur, 9C; in the experiment with barnyardgrass, 9C; in the experiment with cassia, 9C; with morningglory it was 10C; in the experiment on cotton, 9C. The response rating in the experiment on soybean was 8C; in the experiment on corn, 9C.

Source of the values: patent US4383113A, “Agricultural sulfonamides” (E. I. Du Pont de Nemours and Company, priority 1981, dated 1983).
